Reference: PubChem BioAssay AID754 (Emory University Molecular Libraries Screening Center, 2007)
pIC50: −log10 of the molar value. The source made the active and inactive calls.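 The calls were made as follows: active = IC50 for lowering Her2 protein in breast cancer cells at or below a set limit; inactive = IC50 above that limit.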

Test system: SKBr3 Her2 cytoblot, chemiluminescence, 24 h
Assay: reduction of cellular Her2 levels – SKBr3 cells, cytoblot, chemiluminescence, mechanism study for Hsp90 inhibitor project, dose response (AID 754)

## CC(CCN(C)C)Nc1cc(O)cc2cccnc12 (stereo not given)
Top dose 10 µM
  IC50: > 10 µM (inactive)

## CCCC(C)N(CC)CCNc1cc(OC)cc2cccnc12 (stereo not given)
Top dose 50 µM
  IC50: > 50 µM (inactive)

## O=[N+]([O-])c1cccc(S(=O)(=O)Nc2ccc(O)c(-c3ccccc3O)c2)c1
Top dose 60 µM
  IC50: > 60 µM (inactive)

## COc1ccc2c(c1-c1cc(NS(=O)(=O)c3cc(Cl)ccc3Cl)ccc1N)OCO2
Top dose 60 µM
  IC50: > 60 µM (inactive)

## COc1cc(C2CC(c3ccccc3O)=NN2)ccc1O (stereo not given)
Top dose 60 µM
  IC50: 51 µM (inactive)

## CCN(CC)CCCNc1cc(OC)cc2ccc(OC)nc12
Top dose 50 µM
  IC50: > 50 µM (inactive)

## Cc1c(-c2nn(C)c(=O)c3ccccc23)oc2ccc(F)cc2c1=O
Top dose 30 µM
  IC50: > 30 µM (inactive)

## CCOc1ccc2ccccc2c1-c1cc(NS(=O)(=O)c2ccc(C)cc2)ccc1N
Top dose 60 µM
  IC50: > 60 µM (inactive)

## CCn1nc(-c2ccccc2)nc2c(=O)n(C)c(=O)nc1-2
Top dose 30 µM
  pIC50: 5.56

## COc1ccc2c(c1-c1cc(NS(=O)(=O)c3cccc([N+](=O)[O-])c3)ccc1N)OCO2
Top dose 60 µM
  IC50: > 60 µM (inactive)

## COc1ccc(Oc2c(OC)cc(NCCCCCNC(C)C)c3ncccc23)cc1
Top dose 50 µM
  IC50: > 50 µM (inactive)

## CC(C)NCCCC(C)Nc1cc(O)cc2cccnc12 (stereo not given)
Top dose 10 µM
  IC50: > 10 µM (inactive)

## COc1cc(NC(C)CCCNC(C)C)c2ncccc2c1 (stereo not given)
Top dose 50 µM
  IC50: > 50 µM (inactive)

## O=S(=O)(Nc1ccc(Cl)cc1O)c1ccccc1
Top dose 60 µM
  IC50: > 60 µM (inactive)

## CCOc1ccc2ccccc2c1-c1cc(NS(=O)(=O)c2cc(Cl)ccc2Cl)ccc1N
Top dose 60 µM
  IC50: > 60 µM (inactive)

## Nc1ccc(Nc2nc3ccccc3s2)c(O)c1
Top dose 50 µM
  IC50: > 50 µM (inactive)

## Cc1ccc(S(=O)(=O)Nc2ccc(F)c(-c3c(O)ccc4c3OCO4)c2)cc1
Top dose 50 µM
  IC50: > 50 µM (inactive)

## O=C1c2ccccc2-c2onc3ccc(NCCCn4ccnc4)c1c23
Top dose 30 µM
  IC50: > 30 µM (inactive)

## COc1cccc2c1C(=O)c1c(O)c3c(c(O)c1C2=O)C[C@@](O)(C(=O)CO)C[C@@H]3O[C@H]1C[C@H](N)[C@H](O)[C@H](C)O1
Top dose 30 µM
  IC50: > 30 µM (inactive)

## COc1ccc(S(=O)(=O)Nc2ccc(N)c(-c3ccccc3O)c2)cc1OC
Top dose 60 µM
  IC50: > 60 µM (inactive)

## COc1cc(NCC(O)CN(CC(C)C)CC(C)C)c2nc(C)ccc2c1 (stereo not given)
Top dose 50 µM
  IC50: > 50 µM (inactive)

## CCc1cc(-c2[nH]ncc2-c2ccc3c(c2)OCO3)c(O)cc1O
Top dose 30 µM
  IC50: > 30 µM (inactive)

## CCOc1ccc2ccccc2c1-c1cc(NS(=O)(=O)c2ccc(OC)c(OC)c2)ccc1N
Top dose 60 µM
  IC50: > 60 µM (inactive)

## Nc1ccc(O)c2ncccc12
Top dose 10 µM
  IC50: > 10 µM (inactive)
Top dose 50 µM
  IC50: > 50 µM (inactive)

## C[C@H]1CCCC(=O)CCCCCc2cc(O)cc(O)c2C(=O)O1
Top dose 30 µM
  IC50: > 30 µM (inactive)

## Cn1ncnc2c(=O)n(C)c(=O)nc1-2
Top dose 30 µM
  pIC50: > 5.73

## N#Cc1cc(S(=O)(=O)Nc2cc(O)cc3cccnc23)ccc1F
Top dose 60 µM
  IC50: 33.8 µM (inactive)

## COc1ccc(S(=O)(=O)Nc2ccc(O)c(-c3ccccc3O)c2)cc1OC
Top dose 60 µM
  IC50: > 60 µM (inactive)

## CCC(CC)NCCCNc1cc(OC)cc2cccnc12
Top dose 50 µM
  IC50: > 50 µM (inactive)

## Nc1cc(O)cc2cccnc12
Top dose 10 µM
  pIC50: > 6.20

## CC(C)(C)OC(=O)Nc1cccc(NS(=O)(=O)c2cc(Cl)ccc2Cl)c1-c1ccccc1O
Top dose 60 µM
  IC50: 48.2 µM (inactive)

## COc1cc(NCCCN(CC(C)C)CC(C)C)c2ncccc2c1Cl
Top dose 50 µM
  IC50: > 50 µM (inactive)

## CCN(CC)CCCNc1cc(OC)c(Nc2ccccc2)c2cccnc12
Top dose 10 µM
  IC50: > 10 µM (inactive)

## COc1cc(NC(C)CCCNC(C)C)c2ncccc2c1OC (stereo not given)
Top dose 50 µM
  IC50: > 50 µM (inactive)

## COc1cc(NCCCC(C)N)c2nccc(Cl)c2c1 (stereo not given)
Top dose 50 µM
  IC50: > 50 µM (inactive)

## Nc1cc(N)c2cccnc2c1O
Top dose 10 µM
  IC50: > 10 µM (inactive)

## N#Cc1c(N2CCCC2)nc(N)c2c(N)nc(N3CCCC3)cc12
Top dose 30 µM
  IC50: > 30 µM (inactive)

## CC(C)NCCCCCNc1cc(O)cc2cccnc12
Top dose 10 µM
  IC50: > 10 µM (inactive)

## COc1cc(NCCN(CC(C)C)CC(C)C)c2ncccc2c1
Top dose 50 µM
  IC50: > 50 µM (inactive)

## O=S(=O)(Nc1cc(O)cc2cccnc12)c1ccc(F)cc1
Top dose 60 µM
  IC50: > 60 µM (inactive)

## COc1ccc(C2CC(c3ccccc3O)=NN2)cc1OC (stereo not given)
Top dose 60 µM
  IC50: 52.3 µM (inactive)

## N#Cc1cc(S(=O)(=O)Nc2ccc(F)c(-c3c(O)ccc4c3OCO4)c2)ccc1F
Top dose 50 µM
  IC50: > 50 µM (inactive)

## Cc1ccc(S(=O)(=O)Nc2ccc(O)c(-c3ccccc3O)c2)cc1
Top dose 60 µM
  IC50: > 60 µM (inactive)

## COc1cc(NC(C)CCCN)c2ncccc2c1 (stereo not given)
Top dose 50 µM
  IC50: > 50 µM (inactive)

## Nc1cccc(S(=O)(=O)Nc2ccc(N)c(-c3ccccc3O)c2)c1
Top dose 60 µM
  IC50: > 60 µM (inactive)

## COc1cc(NCCCCN)c2ncccc2c1
Top dose 50 µM
  IC50: > 50 µM (inactive)

## Nc1cccc(S(=O)(=O)Nc2ccc(O)c(-c3ccccc3O)c2)c1
Top dose 60 µM
  IC50: > 60 µM (inactive)

## COc1cc(NS(=O)(=O)c2ccc([N+](=O)[O-])cc2[N+](=O)[O-])c2ncccc2c1
Top dose 50 µM
  IC50: > 50 µM (inactive)

## Nc1cc2ccccc2c(O)c1O
Top dose 10 µM
  IC50: > 10 µM (inactive)

## C[C@H]1CCC[C@H](O)CCCCCc2cc(O)cc(O)c2C(=O)O1
Top dose 30 µM
  pIC50: 4.55

## NCc1cc(S(=O)(=O)Nc2cc(O)cc3cccnc23)ccc1F
Top dose 60 µM
  pIC50: 4.79

## Nc1cccc2cc(O)ccc12
Top dose 50 µM
  IC50: > 50 µM (inactive)

## Oc1ccc(-c2nc(-c3ccc(O)c(O)c3)cs2)cc1
Top dose 30 µM
  IC50: > 30 µM (inactive)

## Nc1ccc(NS(=O)(=O)c2ccccc2)c(O)c1
Top dose 60 µM
  IC50: > 60 µM (inactive)

## CCN(CC)CC(O)c1ccnc2c(O)cccc12 (stereo not given)
Top dose 50 µM
  IC50: > 50 µM (inactive)

## O=[N+]([O-])c1cc(O)cc2cccnc12
Top dose 10 µM
  IC50: > 10 µM (inactive)

## Cc1ccc(S(=O)(=O)Nc2ccc(N)c(-c3ccccc3O)c2)cc1
Top dose 60 µM
  IC50: > 60 µM (inactive)

## O=[N+]([O-])c1cc(S(=O)(=O)Nc2ccc(F)c(-c3c(O)ccc4c3OCO4)c2)ccc1Cl
Top dose 50 µM
  IC50: > 50 µM (inactive)

## Nc1ccc(NS(=O)(=O)c2ccccc2[N+](=O)[O-])cc1-c1ccccc1O
Top dose 60 µM
  IC50: > 60 µM (inactive)

## CCC(C)NCCNc1cc(OC)cc2cccnc12 (stereo not given)
Top dose 10 µM
  IC50: > 10 µM (inactive)

## COc1ccc(NS(=O)(=O)c2ccccc2)c(OC)c1
Top dose 60 µM
  IC50: > 60 µM (inactive)

## Nc1ccc(NS(=O)(=O)c2ccccc2N)cc1-c1ccccc1O
Top dose 60 µM
  IC50: > 60 µM (inactive)

## Cc1[nH]c2c(N)cccc2c1C
Top dose 50 µM
  IC50: > 50 µM (inactive)

## COc1cccc2c1C(=O)c1c(O)c3c(c(O)c1C2=O)C[C@@](O)(C(C)=O)C[C@@H]3O[C@H]1C[C@H](N)[C@H](O)[C@H](C)O1
Top dose 30 µM
  pIC50: 4.53

## COc1cc(N)c2ncccc2c1
Top dose 50 µM
  IC50: > 50 µM (inactive)

## NCCCCCNc1cc(O)cc2cccnc12
Top dose 10 µM
  IC50: > 10 µM (inactive)

## CCn1c(CSc2nnc(-c3cccnc3)n2-c2ccccc2C)nc2cc(C(=O)O)ccc21
Top dose 30 µM
  pIC50: 5.50

## COc1ccc2c(c1-c1cc(NS(=O)(=O)c3cccc(N)c3)ccc1N)OCO2
Top dose 60 µM
  IC50: > 60 µM (inactive)

## Nc1ccc(NS(=O)(=O)c2cccc([N+](=O)[O-])c2)cc1-c1ccccc1O
Top dose 60 µM
  IC50: > 60 µM (inactive)

## Nc1cc2c(c(O)c1O)C(=O)c1ccccc1C2=O
Top dose 10 µM
  IC50: > 10 µM (inactive)

## Nc1ccc(NS(=O)(=O)c2cc(Cl)ccc2Cl)cc1-c1ccccc1O
Top dose 60 µM
  IC50: > 60 µM (inactive)

## CCN(CC)CCCC(C)Nc1cc(O)cc2cccnc12 (stereo not given)
Top dose 10 µM
  IC50: > 10 µM (inactive)

## COc1ccc2c(c1-c1cc(NS(=O)(=O)c3ccc(C)cc3)ccc1N)OCO2
Top dose 60 µM
  IC50: > 60 µM (inactive)

## O=S(=O)(Nc1ccc(O)c(-c2ccccc2O)c1)c1cc(Cl)ccc1Cl
Top dose 60 µM
  IC50: > 60 µM (inactive)

## CCn1nc(-c2cccs2)nc2c(=O)n(C)c(=O)nc1-2
Top dose 30 µM
  pIC50: > 5.73

## O=[N+]([O-])c1ccc(NS(=O)(=O)c2ccccc2)c(O)c1
Top dose 60 µM
  IC50: > 60 µM (inactive)

## CCn1c(CSc2nnc3ccccn23)nc2cc(C(=O)O)ccc21
Top dose 30 µM
  IC50: > 30 µM (inactive)

## CCOc1ccc2ccccc2c1-c1cc(NS(=O)(=O)c2cc(Cl)ccc2Cl)ccc1NC(=O)OC(C)(C)C
Top dose 60 µM
  IC50: > 60 µM (inactive)

## CC(Cc1ccc(O)c(O)c1)C(C)Cc1ccc(O)c(O)c1 (stereo not given)
Top dose 30 µM
  IC50: > 30 µM (inactive)
